# Test results taken from patent US12043600B2, “Microbiocidal compounds” (SYNGENTA CROP PROTECTION AG, priority 2018, dated 2024).
# Tests used:
# Pyrenophora teres = assay: Pyrenophora teres/Barley/Leaf Disc Preventative (Net Blotch); assay type: in vivo; conditions: foliar, 200 ppm, barley leaf disc preventative, compared to untreated control, read-out: control of Pyrenophora teres
# From the text: Barley leaf segments cv. Hasso are placed on agar in a multiwell plate (24-well format) and sprayed with the formulated test compound diluted in water. The leaf segments are inoculated with a spore suspension of the fungus 2 days after application. […] The data are presented as the percentage of disease control of each compound for the biological tests against G. lagenarium (Example B3), P. recondita preventative (Example B13), P. teres (Example B15) and M. graminicola (Example B19) as described above. The testing rates of each biological test is specifically described in table C1 below.
# Plasmopara viticola = assay: whole plant or invertebrate; assay type: in vivo; conditions: foliar, read-out: control of Plasmopara viticola
# [1] = tested on: Monographella nivalis (Microdochium nivale); assay: Monographella nivalis (Microdochium nivale)/Liquid Culture (Foot Rot Cereals); assay type: cell-based; conditions: liquid culture, compared to untreated control
# Procedure, shortened: (§1)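 PDB + cryo-stored conidia; compound in DMSO pre-plated, spore broth added on top.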
# [2] = tested on: Magnaporthe grisea (Pyricularia oryzae); assay: whole plant or invertebrate; assay type: in vivo; conditions: foliar, read-out: control of Magnaporthe grisea
# [3] = tested on: Mycosphaerella graminicola (Septoria tritici); assay: Mycosphaerella graminicola (Septoria tritici)/Liquid Culture (Septoria Blotch); assay type: cell-based; conditions: Zymoseptoria tritici; 20 ppm; liquid culture; compared to untreated control
# Procedure, shortened: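 Results given as % disease control: test compound in DMSO was placed in wells first, then potato dextrose broth carrying cryostored fungal conidia was added.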
# [4] = tested on: Mycosphaerella arachidis (Cercospora arachidicola); assay: Mycosphaerella arachidis (Cercospora arachidicola)/Liquid Culture (Early Leaf Spot); assay type: cell-based; conditions: liquid culture, compared to untreated control
# Procedure, shortened: as §1
# [5] = tested on: Phaeosphaeria nodorum (Septoria nodorum); assay: Phaeosphaeria nodorum (Septoria nodorum)/Wheat/Leaf Disc Preventative (Glume Blotch); assay type: in vivo; conditions: Parastagonospora nodorum, foliar, wheat leaf disc preventative, compared to untreated control
# Procedure, shortened: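 Preventative test: compound spray first, then spore inoculation after 2 days on cv. Kanzler wheat leaf segments. Incubation in a climate cabinet at 20 °C and 75% rh under a 12 h light/12 h dark cycle. Activity rated as % control relative to untreated discs at 5–7 days post-application.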
# Phakopsora pachyrhizi = assay: Phakopsora pachyrhizi/Soybean/Preventative (Soybean Rust); assay type: in vivo; conditions: foliar, 288 h, 200 ppm, soybean leaf disc preventative, compared to untreated control, read-out: control of Phakopsora pachyrhizi
# [6] = tested on: Puccinia recondita f. sp. tritici; assay: Puccinia recondita f. sp. tritici/Wheat/Leaf Disc Preventative (Brown Rust); assay type: in vivo; conditions: foliar, 200 ppm, wheat leaf disc preventative, compared to untreated control, read-out: control of Puccinia recondita f. sp. tritici
# [7] = tested on: Glomerella lagenarium (Colletotrichum lagenarium); assay: Glomerella lagenarium (Colletotrichum lagenarium)/Liquid Culture (Anthracnose); assay type: cell-based; conditions: Colletotrichum orbiculare, liquid culture, compared to untreated control
# Phytophthora infestans = assay: whole plant or invertebrate; assay type: in vivo; conditions: in Solanum lycopersicum, foliar, read-out: control of Phytophthora infestans
# [8] = tested on: Blumeria graminis f. sp. tritici (Erysiphe graminis f. sp. tritici); assay: Blumeria graminis f. sp. tritici/Wheat/Leaf Disc Preventative (Powdery Mildew on Wheat); assay type: in vivo; conditions: foliar, wheat leaf disc preventative, compared to untreated control
# Procedure, shortened: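 Preventative leaf-disc test: percent disease control versus untreated leaf segments read 6-8 days post-application. Compound spray applied to wheat cv. Kanzler segments on agar one day before shaking infected plants over them; incubation at 20° C and 60% rh, 24 h darkness then 12 h light/12 h dark cycles.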
# [9] = tested on: Botryotinia fuckeliana (Botrytis cinerea); assay: Botryotinia fuckeliana (Botrytis cinerea)/Liquid Culture (Gray Mould); assay type: cell-based; conditions: liquid culture, compared to untreated control
# Experimental: Conidia of the fungus from cryogenic storage are directly mixed into nutrient broth (Vogels broth). After placing a (DMSO) solution of test compound into a microtiter plate (96-well format), the nutrient broth containing the fungal spores is added.
# [10] = tested on: Puccinia recondita f. sp. tritici; assay: Puccinia recondita f. sp. tritici/Wheat/Leaf Disc Curative (Brown Rust); assay type: in vivo; conditions: foliar, wheat leaf disc curative, compared to untreated control
# Procedure, shortened: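 Formulated compound, diluted in water, is applied to inoculated wheat cv. Kanzler leaf segments on agar one day post-inoculation (pre-incubation dark, 19° C, 75% rh). After 6-8 days at 19° C, 75% rh and 12 h/12 h light, activity is rated as percent disease control relative to untreated segments.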
SMILES,pest or weed control at 200 ppm (Pyrenophora teres),pest or weed control at 200 ppm (Plasmopara viticola),melting point,inhibition of growth at 20 ppm [1],pest or weed control at 200 ppm [2],inhibition of growth at 20 ppm [3],inhibition of growth at 20 ppm [4],pest or weed control at 200 ppm [5],pest or weed control at 200 ppm (Phakopsora pachyrhizi),pest or weed control at 200 ppm [6],inhibition of growth at 20 ppm [7],pest or weed control at 200 ppm (Phytophthora infestans),pest or weed control at 200 ppm [8],inhibition of growth at 20 ppm [9],pest or weed control at 200 ppm [10]
"CC#Cc1ccn(-c2ccc(C)c(O/C(=C\OC)C(=O)OC)c2)n1 [Compound E-2, methyl (Z)-3-methoxy-2-[2-methyl-5-(3-prop-1-ynylpyrazol-1-yl)phenoxy]prop-2-enoate]",≥ 80%,≥ 80%,175 to 179 °C,≥ 80%,≥ 80%,≥ 80%,≥ 80%,≥ 80%,≥ 50%,≥ 80%,,,,,
"CO/C=C(\Oc1cc(-n2cc(Cl)c(OC(C)C)n2)ccc1C)C(=O)OC [Compound E-12, methyl (Z)-2-[5-(4-chloro-3-isopropoxy-pyrazol-1-yl)-2-methyl-phenoxy]-3-methoxy-prop-2-enoate]",≥ 80%,≥ 80%,104 to 107 °C,≥ 80%,≥ 80%,≥ 80%,≥ 80%,,,≥ 80%,≥ 80%,≥ 80%,,,
"CO/C=C(\Oc1cc(-n2cc(Cl)cn2)ccc1C)C(=O)OC [Compound E-54, methyl (Z)-2-[5-(4-chloropyrazol-1-yl)-2-methyl-phenoxy]-3-methoxy-prop-2-enoate]",≥ 80%,≥ 80%,,≥ 80%,,≥ 80%,≥ 80%,≥ 80%,,≥ 80%,≥ 80%,≥ 80%,≥ 80%,≥ 80%,
"CO/C=C(\Oc1cc(-n2cc(C)c(C(F)(F)F)n2)ccc1C)C(=O)OC [Compound E-75, methyl (Z)-3-methoxy-2-[2-methyl-5-[4-methyl-3-(trifluoromethyl)pyrazol-1-yl]phenoxy]prop-2-enoate]",≥ 80%,≥ 80%,131 to 134 °C,≥ 80%,,≥ 80%,≥ 80%,≥ 80%,,≥ 80%,,,≥ 80%,≥ 80%,
"CO/C=C(\Oc1cc(-n2ccc(I)n2)ccc1C)C(=O)OC [Compound E-78, methyl (Z)-2-[5-(3-iodopyrazol-1-yl)-2-methyl-phenoxy]-3-methoxy-prop-2-enoate]",≥ 80%,≥ 80%,156 to 159 °C,≥ 80%,≥ 80%,≥ 80%,≥ 80%,≥ 80%,,≥ 80%,≥ 80%,≥ 80%,≥ 80%,,
"CO/C=C(\Oc1cc(-n2ccc(C(F)(F)F)n2)ccc1C1CC1)C(=O)OC [Compound E-108, methyl (Z)-2-[2-cyclopropyl-5-[3-(trifluoromethyl)pyrazol-1-yl]phenoxy]-3-methoxy-prop-2-enoate]",≥ 80%,,130 to 132 °C,≥ 80%,,≥ 80%,≥ 80%,,,≥ 80%,,,≥ 80%,,
"CCc1ccc(-n2ccc(C(F)(F)F)n2)cc1O/C(=C\OC)C(=O)OC [Compound E-109, methyl (Z)-2-[2-ethyl-5-[3-(trifluoromethyl)pyrazol-1-yl]phenoxy]-3-methoxy-prop-2-enoate]",≥ 80%,≥ 80%,135 to 137 °C,≥ 80%,,≥ 80%,≥ 80%,,,≥ 80%,,,≥ 80%,,
"CO/C=C(\Oc1cc(-n2cc(Cl)c(C3CCCCC3)n2)ccc1C)C(=O)OC [Compound E-112, methyl (Z)-2-[5-(4-chloro-3-cyclohexyl-pyrazol-1-yl)-2-methyl-phenoxy]-3-methoxy-prop-2-enoate]",≥ 80%,≥ 80%,150 to 152 °C,≥ 80%,≥ 80%,,≥ 80%,≥ 80%,,,≥ 80%,,,,≥ 80%
"CO/C=C(\Oc1cc(-n2ccc(C3CCCCC3)n2)c(F)cc1C)C(=O)OC [Compound E-114, methyl (Z)-2-[5-(3-cyclohexylpyrazol-1-yl)-4-fluoro-2-methyl-phenoxy]-3-methoxy-prop-2-enoate]",≥ 80%,≥ 80%,,≥ 80%,≥ 80%,≥ 80%,≥ 80%,≥ 80%,,≥ 80%,≥ 80%,≥ 80%,≥ 80%,,≥ 80%
"CO/C=C(\Oc1cc(-n2ccc(C(F)(F)Cl)n2)ccc1C)C(=O)OC [Compound E-118, methyl (Z)-2-[5-[3-[chloro(difluoro)methyl]pyrazol-1-yl]-2-methyl-phenoxy]-3-methoxy-prop-2-enoate]",≥ 80%,≥ 80%,146 to 148 °C,≥ 80%,≥ 80%,≥ 80%,≥ 80%,≥ 80%,,≥ 80%,≥ 80%,≥ 80%,≥ 80%,,≥ 80%
"C=C(C)c1cnn(-c2ccc(C)c(O/C(=C\OC)C(=O)OC)c2)n1 [Compound F-11, methyl (Z)-2-[5-(4-isopropenyltriazol-2-yl)-2-methyl-phenoxy]-3-methoxy-prop-2-enoate]",≥ 80%,≥ 80%,,≥ 80%,≥ 80%,≥ 80%,≥ 80%,≥ 80%,,≥ 80%,≥ 80%,≥ 80%,≥ 80%,,≥ 80%
"CCON=C(C)c1cnn(-c2ccc(C)c(O/C(=C\OC)C(=O)OC)c2)n1 [Compound F-12, methyl (Z)-2-[5-[4-(N-ethoxy-C-methyl-carbonimidoyl)triazol-2-yl]-2-methyl-phenoxy]-3-methoxy-prop-2-enoate]",≥ 80%,≥ 80%,113 to 116 °C,≥ 80%,≥ 80%,≥ 80%,≥ 80%,≥ 80%,,≥ 80%,≥ 80%,≥ 80%,≥ 80%,,≥ 80%
